Values of other authors as cited in patent US8568779B2, “Method for producing coenzyme Q10 particle” (Kaneka Corporation, priority 2007, dated 2013).

Conditions: composition containing reduced coenzyme Q10 versus oxidized coenzyme Q10 alone

For `COc1c(O)c(C)c(C/C=C(\C)CC/C=C(\C)CC/C=C(\C)CC/C=C(\C)CC/C=C(\C)CC/C=C(\C)CC/C=C(\C)CC/C=C(\C)CC/C=C(\C)CCC=C(C)C)c(O)c1OC` [reduced coenzyme Q10], the oral absorbability is given as “superior to conventional oxidized coenzyme Q10 alone”.
